In ChEMBL document CHEMBL1137144, “Synthesis and biological evaluation of novel 4"-alkoxy avermectin derivatives” (2004):
In brackets after ≈: the same amount, converted by molar mass.

Columns and labels:
[1] = test system: Artemia salina; test: Minimum inhibitory concentration for growth inhibition of Artemia salina(brine shrimp) in a microplate assay; assay type: functional
[2] = test system: Caenorhabditis elegans; test: Minimum inhibitory concentration for growth inhibition of Caenorhabditis elegans (free living nematode) in a microplate assay; assay type: functional

| MIC [2] [ng/mL] | Compound | MIC [1] [ng/mL] |
| --- | --- | --- |
| 10 (≈ 10.6 nM) | CCC(C)[C@H]1O[C@]2(C=C[C@@H]1C)C[C@@H]1C[C@@H](C/C=C(\C)C(O[C@H]3C[C@H](OC)C(O[C@H]4C[C@H](OC)[C@@H](OCCN=[N+]=[N-])[C@H](C)O4)[C@H](C)O3)[C@@H](C)/C=C/C=C3\CO[C@@H]4[C@H](O)C(C)=CC(C(=O)O1)C34O)O2 (stereo not given in full) | 0.5 (≈ 0.531 nM) |
| 10 (≈ 12.7 nM) | CCC(C)[C@H]1O[C@]2(C=C[C@@H]1C)C[C@@H]1C[C@@H](C/C=C(\C)[C@@H](O[C@H]3C[C@H](OC)[C@@H](OCC(=O)O)[C@H](C)O3)[C@@H](C)/C=C/C=C3\CO[C@@H]4[C@H](O)C(C)=CC(C(=O)O1)C34O)O2 (stereo not given in full) | 2 (≈ 2.54 nM) |
| 10 (≈ 10 nM) | CCC(C)[C@H]1O[C@]2(C=C[C@@H]1C)C[C@@H]1C[C@@H](C/C=C(\C)[C@@H](OC3C[C@H](OC)[C@@H](OC4C[C@H](OC)C(OCC(=O)N5CCCCC5)[C@H](C)O4)[C@H](C)O3)[C@@H](C)/C=C/C=C3\CO[C@@H]4[C@H](O)C(C)=C[C@@H](C(=O)O1)[C@]34O)O2 (stereo not given in full) | 10 (≈ 10 nM) |
| 2 (≈ 2.08 nM) | CCOC(=O)CO[C@H]1[C@H](C)O[C@@H](OC2[C@H](C)O[C@@H](OC3/C(C)=C/C[C@@H]4C[C@@H](C[C@]5(CC[C@H](C)[C@@H](C(C)CC)O5)O4)OC(=O)C4C=C(C)[C@@H](O)[C@H]5OC/C(=C\C=C\[C@@H]3C)C45O)C[C@@H]2OC)C[C@@H]1OC (stereo not given in full) | 0.5 (≈ 0.52 nM) |
| 50 (≈ 54.6 nM) | CCC(C)[C@H]1O[C@]2(C=C[C@@H]1C)C[C@@H]1C[C@@H](C/C=C(\C)C(O[C@H]3C[C@H](OC)C(O[C@H]4C[C@H](OC)[C@@H](OCCN)[C@H](C)O4)[C@H](C)O3)[C@@H](C)/C=C/C=C3\CO[C@@H]4[C@H](O)C(C)=CC(C(=O)O1)C34O)O2 (stereo not given in full) | 10 (≈ 10.9 nM) |
| 50 (≈ 50.8 nM) | CCC(C)[C@H]1O[C@]2(C=C[C@@H]1C)C[C@@H]1C[C@@H](C/C=C(\C)C(O[C@H]3C[C@H](OC)C(O[C@H]4C[C@H](OC)[C@@H](OCCN5CCCCC5)[C@H](C)O4)[C@H](C)O3)[C@@H](C)/C=C/C=C3\CO[C@@H]4[C@H](O)C(C)=CC(C(=O)O1)C34O)O2 (stereo not given in full) | 10 (≈ 10.2 nM) |
| 10 (≈ 12.7 nM) | CCC(C)[C@H]1O[C@]2(CC[C@@H]1C)C[C@@H]1C[C@@H](C/C=C(\C)[C@@H](O[C@H]3C[C@H](OC)[C@@H](OCC(=O)O)[C@H](C)O3)[C@@H](C)/C=C/C=C3\CO[C@@H]4[C@H](O)C(C)=CC(C(=O)O1)C34O)O2 (stereo not given in full) | 10 (≈ 12.7 nM) |
| 10 (≈ 10.2 nM) | CCC(C)[C@H]1O[C@]2(C=C[C@@H]1C)C[C@@H]1C[C@@H](C/C=C(\C)C(O[C@H]3C[C@H](OC)C(O[C@H]4C[C@H](OC)[C@@H](OCCBr)[C@H](C)O4)[C@H](C)O3)[C@@H](C)/C=C/C=C3\CO[C@@H]4[C@H](O)C(C)=CC(C(=O)O1)C34O)O2 (stereo not given in full) | 2 (≈ 2.04 nM) |
| 10 (≈ 10.9 nM) | CCC(C)[C@H]1O[C@]2(C=C[C@@H]1C)C[C@@H]1C[C@@H](C/C=C(\C)C(O[C@H]3C[C@H](OC)C(O[C@H]4C[C@H](OC)[C@@H](OCCO)[C@H](C)O4)[C@H](C)O3)[C@@H](C)/C=C/C=C3\CO[C@@H]4[C@H](O)C(C)=CC(C(=O)O1)C34O)O2 (stereo not given in full) | 2 (≈ 2.18 nM) |
| 10 (≈ 10.1 nM) | CCC(C)[C@H]1O[C@]2(C=C[C@@H]1C)C[C@@H]1C[C@@H](C/C=C(\C)C(O[C@H]3C[C@H](OC)C(O[C@H]4C[C@H](OC)[C@@H](OCCN5CCOCC5)[C@H](C)O4)[C@H](C)O3)[C@@H](C)/C=C/C=C3\CO[C@@H]4[C@H](O)C(C)=CC(C(=O)O1)C34O)O2 (stereo not given in full) | 2 (≈ 2.03 nM) |
| 2 (≈ 2.12 nM) | CCC(C)[C@H]1O[C@]2(C=C[C@@H]1C)C[C@@H]1C[C@@H](C/C=C(\C)C(O[C@H]3C[C@H](OC)C(O[C@H]4C[C@H](OC)[C@@H](OC/C=N/OC)[C@H](C)O4)[C@H](C)O3)[C@@H](C)/C=C/C=C3\CO[C@@H]4[C@H](O)C(C)=CC(C(=O)O1)C34O)O2 (stereo not given in full) | 0.5 (≈ 0.53 nM) |
| 0.1 (≈ 0.107 nM) | CCC(C)[C@H]1O[C@]2(C=C[C@@H]1C)C[C@@H]1C[C@@H](C/C=C(\C)[C@@H](OC3C[C@H](OC)[C@@H](OC4C[C@H](OC)[C@@H](OCC(=O)O)[C@H](C)O4)[C@H](C)O3)[C@@H](C)/C=C/C=C3\CO[C@@H]4[C@H](O)C(C)=C[C@@H](C(=O)O1)[C@]34O)O2 (stereo not given in full) | 0.02 (≈ 0.0215 nM) |
| 2 (≈ 2.15 nM) | CCC(C)[C@H]1O[C@]2(C=C[C@@H]1C)C[C@@H]1C[C@@H](C/C=C(\C)C(O[C@H]3C[C@H](OC)C(O[C@H]4C[C@H](OC)[C@@H](OC/C=N/O)[C@H](C)O4)[C@H](C)O3)[C@@H](C)/C=C/C=C3\CO[C@@H]4[C@H](O)C(C)=CC(C(=O)O1)C34O)O2 (stereo not given in full) | 2 (≈ 2.15 nM) |
| 10 (≈ 10.4 nM) | CCC(C)[C@H]1O[C@]2(C=C[C@@H]1C)C[C@@H]1C[C@@H](C/C=C(\C)C(O[C@H]3C[C@H](OC)C(O[C@H]4C[C@H](OC)[C@@H](OCCNC(C)=O)[C@H](C)O4)[C@H](C)O3)[C@@H](C)/C=C/C=C3\CO[C@@H]4[C@H](O)C(C)=CC(C(=O)O1)C34O)O2 (stereo not given in full) | 10 (≈ 10.4 nM) |
| 0.5 (≈ 0.5 nM) | CCC(C)[C@H]1O[C@]2(C=C[C@@H]1C)C[C@@H]1C[C@@H](C/C=C(\C)[C@@H](OC3C[C@H](OC)[C@@H](OC4C[C@H](OC)[C@@H](OCC(=O)N5CCOCC5)[C@H](C)O4)[C@H](C)O3)[C@@H](C)/C=C/C=C3\CO[C@@H]4[C@H](O)C(C)=C[C@@H](C(=O)O1)[C@]34O)O2 (stereo not given in full) | 0.5 (≈ 0.5 nM) |
| 2 (≈ 2.05 nM) | CCOC(=O)CO[C@H]1[C@H](C)O[C@@H](OC2[C@H](C)O[C@@H](OC3/C(C)=C/C[C@@H]4C[C@@H](C[C@]5(CC(O)[C@H](C)[C@@H](C(C)CC)O5)O4)OC(=O)C4C=C(C)[C@@H](O)[C@H]5OC/C(=C\C=C\[C@@H]3C)C45O)C[C@@H]2OC)C[C@@H]1OC (stereo not given in full) | 0.5 (≈ 0.512 nM) |
| 2 (≈ 2.45 nM) | CCOC(=O)CO[C@H]1[C@H](C)O[C@@H](O[C@@H]2/C(C)=C/C[C@@H]3C[C@@H](C[C@]4(CC[C@H](C)[C@@H](C(C)CC)O4)O3)OC(=O)C3C=C(C)[C@@H](O)[C@H]4OC/C(=C\C=C\[C@@H]2C)C34O)C[C@@H]1OC (stereo not given in full) | 0.5 (≈ 0.612 nM) |
| 0.5 (≈ 0.536 nM) | CCC(C)[C@H]1O[C@]2(CC[C@@H]1C)C[C@@H]1C[C@@H](C/C=C(\C)C(O[C@H]3C[C@H](OC)C(O[C@H]4C[C@H](OC)[C@@H](OCC(=O)O)[C@H](C)O4)[C@H](C)O3)[C@@H](C)/C=C/C=C3\CO[C@@H]4[C@H](O)C(C)=CC(C(=O)O1)C34O)O2 (stereo not given in full) | 0.1 (≈ 0.107 nM) |
| 2 (≈ 2.45 nM) | CCOC(=O)CO[C@H]1[C@H](C)O[C@@H](O[C@@H]2/C(C)=C/C[C@@H]3C[C@@H](C[C@]4(C=C[C@H](C)[C@@H](C(C)CC)O4)O3)OC(=O)C3C=C(C)[C@@H](O)[C@H]4OC/C(=C\C=C\[C@@H]2C)C34O)C[C@@H]1OC (stereo not given in full) | 0.5 (≈ 0.613 nM) |
| 2 (≈ 2.09 nM) | CCOC(=O)CO[C@H]1[C@H](C)OC(O[C@H]2[C@H](C)O[C@@H](OC3/C(C)=C/C[C@@H]4C[C@@H](C[C@]5(C=C[C@H](C)[C@@H](C(C)CC)O5)O4)OC(=O)[C@@H]4C=C(C)[C@@H](O)[C@H]5OC/C(=C\C=C\[C@@H]3C)[C@]54O)C[C@@H]2OC)C[C@@H]1OC (stereo not given in full) | 0.5 (≈ 0.521 nM) |
| 2 (≈ 1.99 nM) | CCOC(=O)CO[C@H]1[C@H](C)O[C@@H](OC2[C@H](C)O[C@@H](OC3/C(C)=C/C[C@@H]4C[C@@H](C[C@]5(C/C(=N\OC)[C@H](C)[C@@H](C(C)CC)O5)O4)OC(=O)C4C=C(C)[C@@H](O)[C@H]5OC/C(=C\C=C\[C@@H]3C)C45O)C[C@@H]2OC)C[C@@H]1OC (stereo not given in full) | 2 (≈ 1.99 nM) |
| 2 (≈ 2.29 nM) | CCC(C)[C@H]1O[C@]2(CC[C@@H]1C)C[C@@H]1C[C@@H](C/C=C(\C)[C@@H](OC3C[C@H](OC)[C@@H](OC4C[C@H](OC)[C@@H](O)[C@H](C)O4)[C@H](C)O3)[C@@H](C)/C=C/C=C3\CO[C@@H]4[C@H](O)C(C)=C[C@@H](C(=O)O1)[C@]34O)O2 (stereo not given in full) | 2 (≈ 2.29 nM) |
| 10 (≈ 10.3 nM) | CCOC(=O)CO[C@H]1[C@H](C)O[C@@H](OC2[C@H](C)O[C@@H](OC3/C(C)=C/C[C@@H]4C[C@@H](C[C@]5(CC(=O)[C@H](C)[C@@H](C(C)CC)O5)O4)OC(=O)C4C=C(C)[C@@H](O)[C@H]5OC/C(=C\C=C\[C@@H]3C)C45O)C[C@@H]2OC)C[C@@H]1OC (stereo not given in full) | 2 (≈ 2.05 nM) |
| 50 (≈ 50.7 nM) | CCC(C)[C@H]1O[C@]2(C=C[C@@H]1C)C[C@@H]1C[C@@H](C/C=C(\C)C(O[C@H]3C[C@H](OC)C(O[C@H]4C[C@H](OC)[C@@H](OCCN5CCNCC5)[C@H](C)O4)[C@H](C)O3)[C@@H](C)/C=C/C=C3\CO[C@@H]4[C@H](O)C(C)=CC(C(=O)O1)C34O)O2 (stereo not given in full) | 10 (≈ 10.1 nM) |

| Compound | MIC [2] [ng/mL] | MIC [1] [ng/mL] |
| --- | --- | --- |
| CC[C@H](C)[C@H]1O[C@]2(C=C[C@@H]1C)C[C@@H]1C[C@@H](C/C=C(\C)[C@@H](O[C@H]3C[C@H](OC)[C@@H](O[C@H]4C[C@H](OC)[C@@H](O)[C@H](C)O4)[C@H](C)O3)[C@@H](C)/C=C/C=C3\CO[C@@H]4[C@H](O)C(C)=C[C@@H](C(=O)O1)[C@]34O)O2 [ABAMECTIN COMPONENT B1A] | 2 (≈ 2.29 nM) | 0.5 (≈ 0.573 nM) |
